Data set [1] is described as follows: Encapsulation efficiency of lipid nanoparticles (Quant-it Ribogreen RNA assay). It counts as physicochemical. On the procedure:
(§1) Briefly, a cationic lipid provided herein, DSPC, cholesterol, and PEG-lipid were solubilized in ethanol at a molar ratio of 50:10:38.5:1.5, and mRNA were diluted in 10 to 50 mM citrate buffer, pH=4. The LNPs were prepared at a total lipid to mRNA weight ratio of approximately 10:1 to 30:1 by mixing the ethanolic lipid solution with the aqueous mRNA solution at a volume ratio of 1:3 using a microfluidic apparatus, total flow rate ranging from 9-30 mL/min. Ethanol were thereby removed and replaced by DPBS using dialysis. Finally, the lipid nanoparticles were filtered through a 0.2 μm sterile filter.
(§2) Lipid nanoparticle size were determined by dynamic light scattering using a Malvern Zetasizer Nano ZS (Malvern UK) using a 173° backscatter detection mode. The encapsulation efficiency of lipid nanoparticles were determined using a Quant-it Ribogreen RNA quantification assay kit (Thermo Fisher Scientific, UK) according to the manufacturer's instructions.

Data set [2] can be described thus: Apparent pKa of LNP formulations by TNS fluorescence assay. Particulars: LNP cationic lipid/DSPC/cholesterol/DMG-PEG 50/10/38.5/1.5 mol %, pH 3 to 9.
Experimental: TNS was prepared as a 300 uM stock solution in distilled water. LNP formulations were diluted to 0.1 mg/ml total lipid in 3 mL of buffered solutions containing 50 mM sodium citrate, 50 mM sodium phosphate, 50 mM sodium borate, and 30 mM sodium chloride where the pH ranged from 3 to 9. An aliquot of the TNS solution was added to give a final concentration of 0.1 mg/ml and following vortex mixing fluorescence intensity was measured at room temperature in a Molecular Devices Spectramax iD3 spectrometer using excitation and mission wavelengths of 325 nm and 435 nm. A sigmoidal best fit analysis was applied to the fluorescence data and the pKa value was measured as the pH giving rise to half—maximal fluorescent intensity.
A short description of data set [3]: Lipid nanoparticle size and polydispersity by dynamic light scattering. It counts as physicochemical. Particulars: LNP of cationic lipid/DSPC/cholesterol/PEG-lipid 50:10:38.5:1.5 with mRNA. How it is done: as §1, §2
The mark [4] stands for this setting: LNP of cationic lipid/DSPC/cholesterol/PEG-lipid 50:10:38.5:1.5 with mRNA.

With `CCCCCCCCC(CCCCCC)COP(=O)(NCCN(CCO)CCCC)OCC(CCCCCC)CCCCCCCC` (centres unmarked) [Compound 14], the “Encapsulation Efficiency” value in data set [1] (setting [4]) worked out at 88.8%. Further, the “Apparant Pka” value in data set [2] was 5.64. In data set [3], the polydispersity is on record as 0.037 and the “size (nm)” value came out at 138.5 nm.
As for `CCCCCCCCC(CCCCC)COP(=O)(NCCN(CC)CC)OCC(CCCCC)CCCCCCCC` (centres unmarked) [Compound 72], the “Encapsulation Efficiency” value in data set [1] (setting [4]) is given as 95.6%. For the same molecule, the “Apparant Pka” value in data set [2] worked out at 5.86. In data set [3], the polydispersity is 0.154 and the “size (nm)” value was found to be 73.94 nm.
The corresponding values for `CCCCCCCCCCCCCOP(=O)(NCCCN(C)C)OCCCCCCCCCCCCC` [Compound 10] are 96.2%, 6.94, 0.116 and 138.3 nm.
As for `CCCCCCC(CCCCCC)COP(=O)(NCCN(CC)CC)OCC(CCCCCC)CCCCCC` [Compound 82], in data set [1] (setting [4]), the “Encapsulation Efficiency” value was 86.9%. Also, in data set [2], the “Apparant Pka” value stood at 6.097. Moreover, in data set [3], the polydispersity worked out at 0.138 and the “size (nm)” value was 70.5 nm.
For `CCCCCCCCCOP(=O)(NCCN(C)C)OCCCCCCCCC` [Compound 3], in that order: 61.6%, 8.59, 0.154 and 53.41 nm.
For `CCCCCCCCC(CCCCCC)COP(=O)(NCCCN1CCOCC1)OCC(CCCCCC)CCCCCCCC` (centres unmarked) [Compound 31], the “Encapsulation Efficiency” value in data set [1] (setting [4]) is 91.8%. Also, the “Apparant Pka” value in data set [2] is recorded as 5.21. Besides, in data set [3], the polydispersity was found to be 0.159 and the “size (nm)” value is 62.39 nm.
As for `CCCCCCCCC(CCCCCCCC)OC(=O)CCCCCCCOP(=O)(NCCCN(C)C)OCCCCCCCC(=O)OC(CCCCCCCC)CCCCCCCC` [Compound 36], in data set [1] (setting [4]), the “Encapsulation Efficiency” value came out at 95.3%. The “Apparant Pka” value in data set [2] was 6.20. In addition, in data set [3], the polydispersity came out at 0.091 and the “size (nm)” value turned out to be 63.97 nm.
For `CCCCCCCCC(CCCCCC)COP(=O)(NCCN1CCCC1)OCC(CCCCCC)CCCCCCCC` (centres unmarked) [Compound 24], in that order: 98.0%, 6.63, 0.131 and 81.53 nm.
As to `CCCCCCCCC(CCC)COP(=O)(NCCN(CC)CC)OCC(CCC)CCCCCCCC` (centres unmarked) [Compound 70], in data set [1] (setting [4]), the “Encapsulation Efficiency” value was 93.8%. Besides, the “Apparant Pka” value in data set [2] is reported as 6.153. In data set [3], the polydispersity turned out to be 0.298 and the “size (nm)” value was determined as 53.76 nm.
For `CCCCCCCCCOP(=O)(NCCN1CCCCC1)OCCCCCCCC(=O)OC(CCCCCCCC)CCCCCCCC` (centres unmarked) [Compound 33], in that order: 98.2%, 7.74, 0.091 and 128.5 nm.
The corresponding values for `CCCCCCCCC(C)COP(=O)(NCCN(CC)CC)OCC(C)CCCCCCCC` (centres unmarked) [Compound 69] are 87.1%, 7.408, 0.355 and 68.3 nm.
For the molecule `CCCCCCCCC(CCCCCC)COP(=O)(NCCN(CCO)C1CCCCC1)OCC(CCCCCC)CCCCCCCC` (centres unmarked) [Compound 47], the “Encapsulation Efficiency” value in data set [1] (cell printed without % sign) is 0.864. Further, in data set [2], the “Apparant Pka” value was found to be 5.27. In data set [3], the polydispersity is given as 0.071 and the “size (nm)” value was 73.53 nm.
As for `CCCCCCCCC(CCCCCC)COP(=O)(NCCCN1CCCCC1)OCC(CCCCCC)CCCCCCCC` (centres unmarked) [Compound 27], the “Encapsulation Efficiency” value in data set [1] (setting [4]) came to 75.7%. Further, the “Apparant Pka” value in data set [2] is listed as 5.18. Besides, in data set [3], the polydispersity turned out to be 0.135 and the “size (nm)” value was 83.11 nm.
As for `CCCCCCCCC(CCCCCC)COP(=O)(OCCN1CCCC1)OCC(CCCCCC)CCCCCCCC` (centres unmarked) [Compound 76], the “Encapsulation Efficiency” value in data set [1] (setting [4]) is 76.6%. Further, the “Apparant Pka” value in data set [2] is 4.666. In data set [3], the polydispersity was 0.24 and the “size (nm)” value is recorded as 74.49 nm.
For `CCCCCCC(CCCCCC)COP(=O)(NCCN1CCCC1)OCC(CCCCCC)CCCCCC` [Compound 83], in that order: 87.8%, 6.319, 0.056 and 82.63 nm.
For `CCCCCCCCC(CCCCCC)COP(=O)(NCCCN1CCCCCC1)OCC(CCCCCC)CCCCCCCC` (centres unmarked) [Compound 29], in that order: 58.9%, 5.51, 0.09 and 84.8 nm.
As for `CCCCCCCCC(CCCCCC)COP(=O)(NCCN(C(C)C)C(C)C)OCC(CCCCCC)CCCCCCCC` (centres unmarked) [Compound 48], the “Encapsulation Efficiency” value in data set [1] (setting [4]) is reported as 93.48%. Also, in data set [3], the polydispersity was 0.094 and the “size (nm)” value came to 73.81 nm.
As to `CCCCCCCCCCC(CCCCCCCCCC)COP(=O)(NCCN1CCCC1)OCC(CCCCCCCCCC)CCCCCCCCCC` [Compound 87], in data set [1] (setting [4]), the “Encapsulation Efficiency” value was 93.8%. Moreover, the “Apparant Pka” value in data set [2] is 6.303. In addition, in data set [3], the polydispersity was found to be 0.045 and the “size (nm)” value was 66.05 nm.
For `CCCCCCCCC(CCCCCC)COP(=O)(NCCN1CCOCC1)OCC(CCCCCC)CCCCCCCC` (centres unmarked) [Compound 30], in that order: 16.8%, 3.88, 0.197 and 71.91 nm.
The corresponding values for `CCCCCCCCC(CCCCCC)COP(=O)(NCCN1CCC(F)(F)C1)OCC(CCCCCC)CCCCCCCC` (centres unmarked) [Compound 60] are 55.0%, 3.726, 0.179 and 85.33 nm.
Consider `CCCCCCCCC(CCCCCC)COP(=O)(NCCCN(C)C)OCC(CCCCCC)CCCCCCCC` (centres unmarked) [Compound 7], for which the “Encapsulation Efficiency” value in data set [1] (setting [4]) came out at 96.3%. For the same molecule, in data set [2], the “Apparant Pka” value is reported as 7.20. Moreover, in data set [3], the polydispersity was 0.1 and the “size (nm)” value is on record as 73.54 nm.
As to `CCCCCCCCC(CCCCCC)COP(=O)(NCCN(CC)CC)OCC(CCCCCC)CCCCCCCC` (centres unmarked) [Compound 49], in data set [1] (setting [4]), the “Encapsulation Efficiency” value is reported as 95.1%. Also, the “Apparant Pka” value in data set [2] is 6.47. Also, in data set [3], the polydispersity was determined as 0.191 and the “size (nm)” value is recorded as 58.02 nm.
Take `CCCCCCCCCCCCCOP(=O)(NCCN1CCOCC1)OCCCCCCCCCCCCC` [Compound 15]: in data set [1] (setting [4]), the “Encapsulation Efficiency” value was 73.6%. Further, the “Apparant Pka” value in data set [2] worked out at 5.90. Also, in data set [3], the polydispersity came out at 0.059 and the “size (nm)” value was 104.3 nm.
`CCCCCCCCC(CCCCCCCC)COP(=O)(NCCN1CCCC1)OCC(CCCCCCCC)CCCCCCCC` [Compound 81]: the “Encapsulation Efficiency” value in data set [1] (setting [4]) is listed as 92.7%. Further, the “Apparant Pka” value in data set [2] is on record as 5.661. In data set [3], the polydispersity is listed as 0.218 and the “size (nm)” value amounted to 56.41 nm.
Turning to `CCCCCCCCC(CCC)COP(=O)(NCCN1CCCC1)OCC(CCC)CCCCCCCC` (centres unmarked) [Compound 71], the “Encapsulation Efficiency” value in data set [1] (setting [4]) was determined as 94.4%. For the same molecule, the “Apparant Pka” value in data set [2] was found to be 7.104. Also, in data set [3], the polydispersity worked out at 0.108 and the “size (nm)” value is given as 69.18 nm.
The corresponding values for `CCCCCCCCC(CCCC)COP(=O)(NCCN1CCCC1)OCC(CCCC)CCCCCCCC` (centres unmarked) [Compound 73] are 91.4%, 7.003, 0.101 and 70.54 nm.
For `CCCCCCCCC(CCCCCC)COP(=O)(NCCCN1CCCC1)OCC(CCCCCC)CCCCCCCC` (centres unmarked) [Compound 25], in that order: 52.3%, 5.49, 0.057 and 109.7 nm.
Consider `CCCCCCCCC(CCCCCCCC)OC(=O)CCCCCCCOP(=O)(NCCCN(C)C)NCCCN(C)C` [Compound 37], for which the “Encapsulation Efficiency” value in data set [1] (setting [4]) is given as 48.8%. Further, the “Apparant Pka” value in data set [2] is reported as 4.55. In addition, in data set [3], the polydispersity was 0.166 and the “size (nm)” value was 104.3 nm.
As to `CCCCCCCCC(CCCCCC)COP(=O)(NCCN1CC2CCCC2C1)OCC(CCCCCC)CCCCCCCC` (centres unmarked) [Compound 61], in data set [1] (setting [4]), the “Encapsulation Efficiency” value came out at 82.85%. Also, in data set [3], the polydispersity was found to be 0.163 and the “size (nm)” value turned out to be 69.3 nm.
As for `CCCCCCCCCCC(CCCCCCCCCC)COP(=O)(NCCN(CC)CC)OCC(CCCCCCCCCC)CCCCCCCCCC` [Compound 86], the “Encapsulation Efficiency” value in data set [1] (setting [4]) is reported as 81.0%. The “Apparant Pka” value in data set [2] is recorded as 4.924.
With `CCCCCCCCC(CCCCCCCC)OC(=O)CCCCCCCOP(=O)(NCCN(C)C)OCCCCCCC` (centres unmarked) [Compound 42], the “Encapsulation Efficiency” value in data set [1] (setting [4]) was determined as 102.3%. Further, in data set [3], the polydispersity is recorded as 0.1 and the “size (nm)” value was 54.46 nm.
The corresponding values for `CCCCCCCCC(CCCCCC)COP(=O)(NCCN(CCC)CCC)OCC(CCCCCC)CCCCCCCC` (centres unmarked) [Compound 50] are 85.5%, 0.09 and 93.25 nm.
On to `CCCCCCCCC(CCCCCC)COC(=O)CCCCCOP(=O)(NCCCN(C)C)OCCCCCC(=O)OCC(CCCCCC)CCCCCCCC` (centres unmarked) [Compound 45], for which the “Encapsulation Efficiency” value in data set [1] (setting [4]) was 102.8%. In addition, in data set [3], the polydispersity turned out to be 0.12 and the “size (nm)” value is 63.18 nm.
